# Results taken from patent US6410594B1, “Substituted cyclopentane compounds useful as neuraminidase inhibitors” (Biocryst Pharmaceuticals, Inc., priority 1996, dated 2002).
# What was measured:
# [1] = molecular target: H1N9 Influenza Neuraminidase (Influenza A virus, UniProt P03472); test: biochemical; set-up: species or system influenza virus (H1N9 strain); settings: 10 min at 37° C.; read-out: Inhibition of H1N9 Influenza Neuraminidase IC50
# H1N9 Influenza Neuraminidase, sequence (P03472 83-470 limits assumed): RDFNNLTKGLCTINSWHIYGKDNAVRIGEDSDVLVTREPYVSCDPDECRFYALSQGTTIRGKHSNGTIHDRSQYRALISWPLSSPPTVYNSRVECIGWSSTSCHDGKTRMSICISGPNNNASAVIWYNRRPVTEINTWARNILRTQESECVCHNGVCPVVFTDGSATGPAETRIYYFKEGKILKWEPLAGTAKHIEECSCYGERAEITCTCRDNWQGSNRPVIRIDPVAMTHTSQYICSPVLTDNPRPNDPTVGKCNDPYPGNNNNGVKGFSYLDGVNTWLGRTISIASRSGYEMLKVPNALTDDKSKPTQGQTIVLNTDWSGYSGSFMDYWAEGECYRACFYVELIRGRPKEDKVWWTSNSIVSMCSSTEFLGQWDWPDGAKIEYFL
Structure (SMILES),melting point [°C],IC50 [1] [µM]
"CC(=O)NC(CO)[C@H]1CC(C(=O)O)C[C@@H]1NC(=N)N (single isomer, unassigned; isomer a) [Example 6, 4β-{[(Amino)(imino)methyl]amino}-3α-[(2-hydroxy-1-methylcarbonylamino)ethyl]-1-cyclo-pentancarboxylic acid (isomer A at C-6)]",121 to 122,90
"CC(=O)NC(COC(=O)C(F)(F)F)[C@H]1C[C@](O)(C(=O)O)C[C@@H]1NC(=N)N (single isomer, unassigned; isomer a) [Example 16, c-3-{[(Amino)(imino)methyl]amino}-t-1-hydroxy-t-4-[(1-methylcarbonylamino)(2-trifluoromethyl-carbonyloxy)ethyl]cyclopentan-r-carboxylic acid trifluoroacetic acid (4:1) (isomer A at C-6)]",,70
"CC(=O)NC(CO)[C@H]1CC(C(=O)O)C[C@@H]1NC(=N)N (single isomer, unassigned; isomer b) [Example 7, Sodium 3β-{[(amino)(imino)methyl]amino}-4α-[(2-hydroxy)(1-methylcarbonylamino)ethyl]-cyclopentan-r-carboxylate:diethylether:hydrate (12:4:3), isomer B]",,3800
"CC(=O)NC(C(O)C(O)CO)[C@H]1CC(C(=O)O)C[C@@H]1NC(=N)N (single isomer, unassigned; isomer b) [Example 13, 3β-{[(Amino)(imino)methyl]amino}-4α-[(1-methylcarbonylamino)(2,3,4-trihydroxy)butyl]-cyclopentancarboxylic acid trifluoroacetic acid (1:2) (isomer B at C-1, isomer A at C-6, isomer B at C-7)]",,4.3
"CC(=O)NC(C(O)C(O)CO)[C@H]1CC(C(=O)O)C[C@@H]1NC(=N)N (single isomer, unassigned; isomer b) [Example 14, 3β-{[(Amino)(imino)methyl]amino}-4α-[(1-methylcarbonylamino)(2,3,4-trihydroxy)butyl]cyclo-pentancarboxylic acid trifluoroacetic acid (4:9) (isomer B at C-6, isomer A at C-1, C-7 and/or C-8)]",,40
"CC(=O)NC(C(O)C(O)CO)[C@H]1CC(C(=O)O)C[C@@H]1NC(=N)N (single isomer, unassigned; isomer b) [Example 15, 3β-{[(Amino)(imino)methyl]amino}-4α-[(1-methylcarbonylamino)(2,3,4-trihydroxy)butyl]cyclo-pentancarboxylic acid trifluoroacetic acid (5:13) (isomer B at C-6, isomer B at C-1, C-7 and/or C-8)]",,50
"CC(=O)NC(COC(=O)C(F)(F)F)[C@H]1C[C@](O)(C(=O)O)C[C@@H]1NC(=N)N (single isomer, unassigned; isomer b) [Example 17, c-3-{[(Amino)(imino)methyl]amino}-t-1-hydroxy-t-4-[(1-methylcarbonylamino)(2-trifluoromethyl-carbonyloxy)ethyl]cyclopentan-r-carboxylic acid trifluoroacetic acid (4:3) (isomer B at C-6)]",,2000
"CON(C)C(=O)C(NC(C)=O)[C@H]1C[C@](O)(C(=O)O)C[C@@H]1NC(=N)N (stereo partly drawn) [Example 19, c-3-{[(Amino)(imino)methyl]amino}-t-1-hydroxy-t-4{(methylcarbonylamino){[(methyl)-(methoxy)amino]carbonyl}methyl}cyclopentan-r-carboxylic acid trifluoroacetic acid (1:1)]",160 to 216,16
CON(C)CCC(=O)C(NC(C)=O)[C@H]1CC(C(=O)O)C[C@@H]1NC(=N)N (stereo partly drawn) [Example 20],,8
"CCCN(CCC)C(=O)C(NC(C)=O)[C@H]1C[C@@](O)(C(=O)O)C[C@@H]1N=C(N)N (stereo partly drawn) [Example 23, t-3-{[(Amino)(imino)methyl]amino}-c-4-[(di-n-propylaminocarbonyl)(methylcarbonylamino)-methyl]-t-hydroxycyclpentan-r-carboxylic acid trifluoroacetic acid (4:5)]",,0.47
